In patent US8637511B2, “Aminopyrimidines useful as kinase inhibitors” (Vertex Pharmaceuticals Incorporated, priority 2005, dated 2014):
Read-outs that look alike come from different tables or passages of the source.

What was measured:
[1] = target: T1, JAK3 (Homo sapiens, UniProt P52333); experiment: biochemical
T1 sequence (P52333 1-1124): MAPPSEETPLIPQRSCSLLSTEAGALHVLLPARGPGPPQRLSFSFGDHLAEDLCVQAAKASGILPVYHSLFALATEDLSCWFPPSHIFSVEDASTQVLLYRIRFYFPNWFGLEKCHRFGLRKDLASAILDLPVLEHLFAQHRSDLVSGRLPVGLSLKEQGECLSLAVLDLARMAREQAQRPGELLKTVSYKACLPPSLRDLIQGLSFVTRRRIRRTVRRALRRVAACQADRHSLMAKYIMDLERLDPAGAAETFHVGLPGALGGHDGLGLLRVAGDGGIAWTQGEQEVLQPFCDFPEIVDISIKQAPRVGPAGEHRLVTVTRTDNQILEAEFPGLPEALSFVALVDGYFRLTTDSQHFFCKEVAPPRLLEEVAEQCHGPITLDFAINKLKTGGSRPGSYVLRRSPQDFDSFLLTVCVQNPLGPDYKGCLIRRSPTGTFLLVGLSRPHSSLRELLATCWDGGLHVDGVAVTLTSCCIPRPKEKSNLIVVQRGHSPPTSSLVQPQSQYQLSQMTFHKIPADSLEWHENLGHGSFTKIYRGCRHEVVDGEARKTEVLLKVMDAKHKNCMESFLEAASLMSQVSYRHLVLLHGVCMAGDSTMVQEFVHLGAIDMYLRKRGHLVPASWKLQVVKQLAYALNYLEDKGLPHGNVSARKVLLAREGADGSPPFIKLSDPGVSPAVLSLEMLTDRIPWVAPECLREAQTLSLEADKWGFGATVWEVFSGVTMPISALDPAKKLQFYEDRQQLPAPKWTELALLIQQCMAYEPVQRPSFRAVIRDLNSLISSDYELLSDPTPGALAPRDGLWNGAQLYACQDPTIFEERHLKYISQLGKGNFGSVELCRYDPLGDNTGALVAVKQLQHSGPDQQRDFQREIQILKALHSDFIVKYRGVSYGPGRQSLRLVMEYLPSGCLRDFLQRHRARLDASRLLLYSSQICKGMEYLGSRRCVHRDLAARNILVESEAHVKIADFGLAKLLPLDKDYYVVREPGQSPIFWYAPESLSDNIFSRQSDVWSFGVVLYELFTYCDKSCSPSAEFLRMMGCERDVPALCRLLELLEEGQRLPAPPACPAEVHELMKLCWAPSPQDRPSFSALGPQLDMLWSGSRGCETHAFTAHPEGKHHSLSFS

[2] = target: T2, FLT-3 (Homo sapiens, UniProt P36888); experiment: FLT-3 inhibition assay, radiometric filter-binding; type: biochemical
T2 sequence (P36888 27-993): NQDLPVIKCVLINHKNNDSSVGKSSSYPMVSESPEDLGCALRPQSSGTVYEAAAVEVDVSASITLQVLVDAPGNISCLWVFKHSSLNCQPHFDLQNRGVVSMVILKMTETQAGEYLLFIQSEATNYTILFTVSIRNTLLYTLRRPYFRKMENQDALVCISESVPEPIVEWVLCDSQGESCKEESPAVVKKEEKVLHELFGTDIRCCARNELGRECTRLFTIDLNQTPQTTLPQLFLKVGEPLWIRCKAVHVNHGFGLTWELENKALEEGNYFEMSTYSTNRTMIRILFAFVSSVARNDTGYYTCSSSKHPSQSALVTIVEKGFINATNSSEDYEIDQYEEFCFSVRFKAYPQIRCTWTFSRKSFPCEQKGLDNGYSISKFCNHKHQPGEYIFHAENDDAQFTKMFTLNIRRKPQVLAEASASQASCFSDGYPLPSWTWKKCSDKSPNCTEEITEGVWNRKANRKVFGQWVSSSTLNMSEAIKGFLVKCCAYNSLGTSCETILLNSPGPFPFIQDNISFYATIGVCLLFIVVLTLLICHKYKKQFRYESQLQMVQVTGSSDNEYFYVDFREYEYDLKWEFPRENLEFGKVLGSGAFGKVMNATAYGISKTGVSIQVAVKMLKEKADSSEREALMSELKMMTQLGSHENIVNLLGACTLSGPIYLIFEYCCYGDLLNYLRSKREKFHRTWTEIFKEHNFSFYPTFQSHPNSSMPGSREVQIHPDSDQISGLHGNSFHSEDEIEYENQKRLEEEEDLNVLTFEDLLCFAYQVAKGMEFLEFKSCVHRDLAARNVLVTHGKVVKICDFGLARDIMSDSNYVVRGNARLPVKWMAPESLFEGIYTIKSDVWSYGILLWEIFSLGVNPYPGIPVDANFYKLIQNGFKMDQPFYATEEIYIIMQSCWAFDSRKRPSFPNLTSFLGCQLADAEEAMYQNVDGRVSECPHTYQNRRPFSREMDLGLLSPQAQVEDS

[3] = tested on: Colo205 cells; experiment: Analysis of cell proliferation and viability; type: cell-based; conditions: Homo sapiens, COLO 205, Colo205 cells, read-out: IC50 value

Cc1cc(Nc2cc(N3CC(N4CC[C@H](F)C4)C3)nc(Sc3ccc4ncccc4c3)n2)n[nH]1 [Compound 160]
Ki ([1]; read-out: JAK3 Ki value): ≤ 10 nM | Ki [2]: ≤ 50 nM | IC50 ([3]; incubated for 72 hours): ≤ 30 nM

Cc1cc(Nc2cc(N3CCC3)nc(Sc3ccc(NC(=O)c4ccc(Cl)cc4Cl)cc3)n2)n[nH]1 [Compound 162]
Ki [1]: 10 to 500 nM | Ki [2]: 150 to 1000 nM | IC50 ([3]; incubated for 96 hours): 50 to 1000 nM

Cc1cc(Nc2cc(N3CCC3)nc(Sc3ccc(NC(=O)c4nccn4C)cc3)n2)n[nH]1 [Compound 166]
Ki ([1]; read-out: JAK3 Ki value): 10 to 500 nM | Ki [2]: 150 to 1000 nM | IC50 ([3]; incubated for 96 hours): > 1000 nM

Cc1cc(Nc2cc(N3CCC3)nc(Sc3ccc(NC(=O)c4ocnc4C)cc3)n2)n[nH]1 [Compound 167]
Ki [1]: 10 to 500 nM | Ki [2]: 150 to 1000 nM | IC50 ([3]; incubated for 96 hours): > 1000 nM

Cc1cc(Nc2cc(N3CC(F)(C4CC4)C3)nc(Sc3ccc(-c4ncc(C)o4)cc3)n2)[nH]n1 [Compound 175]
Ki [1]: 10 to 500 nM | Ki [2]: 150 to 1000 nM | IC50 ([3]; incubated for 72 hours): > 200 nM

Cc1ccc2cc(Sc3nc(Nc4cc(C)[nH]n4)cc(N4CC(N5CCCC5)C4)n3)ccc2n1 [Compound 182]
Ki [1]: 10 to 500 nM | Ki [2]: 50 to 150 nM | IC50 ([3]; incubated for 72 hours): ≤ 30 nM

CC(=O)Nc1cccc(Sc2nc(Nc3cc(C)n[nH]3)cc(N3CC(F)(C4CC4)C3)n2)c1 [Compound 188]
Ki ([1]; read-out: JAK3 Ki value): 10 to 500 nM | Ki [2]: 50 to 150 nM | IC50 ([3]; incubated for 72 hours): > 200 nM

Cc1cc(Nc2cc(N3CC(F)(C4CC4)C3)nc(Sc3ccc4nc(C(F)(F)F)cn4c3)n2)[nH]n1 [Compound 190]
Ki ([1]; read-out: JAK3 Ki value): 10 to 500 nM | Ki [2]: 150 to 1000 nM | IC50 ([3]; incubated for 72 hours): 30 to 200 nM

Cc1cc(Nc2cc(N3CC(N4CCOCC4)C3)nc(Sc3ccc(NC(=O)C4(C(F)(F)F)CC4)cc3)n2)[nH]n1 [Compound 191]
Ki ([1]; read-out: JAK3 Ki value): 10 to 500 nM | Ki ([2]; read-out: FLT-3 Ki value): 150 to 1000 nM | IC50 ([3]; incubated for 72 hours): ≤ 30 nM

Cc1ccc2cc(Sc3nc(Nc4cc(C)[nH]n4)cc(N4CC(C5CCC(F)C5)C4)n3)ccc2n1 (stereo not drawn) [Compound 198]
Ki ([1]; read-out: JAK3 Ki value): 10 to 500 nM | Ki [2]: 50 to 150 nM | IC50 ([3]; incubated for 72 hours): ≤ 30 nM

Cc1cc(Nc2cc(N3CC(N4CCOCC4)C3)nc(Sc3ccc(NC(=O)CC(F)(F)F)cc3)n2)[nH]n1 [Compound 199]
Ki ([1]; read-out: JAK3 Ki value): ≤ 10 nM | Ki [2]: ≤ 50 nM | IC50 ([3]; incubated for 72 hours): ≤ 30 nM

Cc1cc(Nc2cc(N3CC(F)(C4CC4)C3)nc(Sc3ccc4nc(C(F)(F)F)[nH]c4c3)n2)[nH]n1 [Compound 202]
Ki [1]: ≤ 10 nM | Ki [2]: ≤ 50 nM | IC50 ([3]; incubated for 72 hours): 30 to 200 nM
